Test results reported in PMC11633381 (mBio, 2024).

Columns and labels:
SusA [1] = biological target: T1, SusA (Bacteroides thetaiotaomicron, UniProt Q8A1G0, D331N); assay: isothermal titration calorimetry; assay type: binding
T1 construct: cloned starting with T23

BoGH97D = biological target: T2, BoGH97D (Bacteroides ovatus, UniProt A0ABU3IP51); assay: competitive inhibition kinetics with pNP-Glc; assay type: biochemical
T2 construct: gene RO706_07160; N-terminal 6x His tag, recombinant

BoSusB (BoGH97CSus) = biological target: T3, BoSusB (BoGH97CSus) (Bacteroides ovatus, UniProt A0AAN3A6N4); assay: co-crystal structure; competitive inhibition kinetics with pNP-Glc; assay type: biochemical
T3 construct: gene BACOVA_03519; N-terminal 6x His tag, recombinant

BoSusA (BoGH13BSus) [2] = biological target: T4, BoSusA (BoGH13BSus) (Bacteroides ovatus, UniProt A0ABU3INP3); assay: inhibition kinetics with pNP-G6 (αKi); also ITC binding to free enzyme; assay type: biochemical; conditions: read-out: Inhibition constant
T4 construct: gene RO706_06385; cloned starting with A90 (A23 in SusA numbering)

BoSusG (BoGH13ASus) = biological target: T5, BoSusG (BoGH13ASus) (Bacteroides ovatus, UniProt A0ABU3ISA0); assay: EnzChek fluorescent starch amylase assay; assay type: biochemical
T5 construct: gene RO706_06355

BoSusA (BoGH13BSus) [3] = biological target: T6, BoSusA (BoGH13BSus) (Bacteroides ovatus, UniProt A0ABU3INP3, D331N); assay: isothermal titration calorimetry; assay type: binding
T6 construct: gene RO706_06385; cloned starting with A90 (A23 in SusA numbering)

BtGH97H = biological target: T7, BtGH97H (Bacteroides thetaiotaomicron, UniProt Q89YZ9); assay: competitive inhibition kinetics with pNP-Glc; assay type: biochemical
T7 construct: gene BT_4581; N-terminal 6x His tag, recombinant

SusA [4] = biological target: T8, SusA (Bacteroides thetaiotaomicron, UniProt Q8A1G0); assay: inhibition kinetics with pNP-G6 (αKi); also ITC binding to free enzyme; assay type: biochemical
T8 construct: cloned starting with T23

C[C@H]1O[C@H](O[C@H]2[C@H](O)[C@@H](O)[C@@H](O[C@H]3[C@H](O)[C@@H](O)C(O)O[C@@H]3CO)O[C@@H]2CO)[C@H](O)[C@@H](O)[C@@H]1N[C@H]1C=C(CO)[C@@H](O)[C@H](O)[C@H]1O (some centres unmarked) [acarbose]
isothermal titration calorimetry (SusA [1]): Wild-type enzyme has two acarbose-binding sites, whereas a catalytically inert variant of each enzyme (D331N) has one | Ki (BoGH97D): 134 ± 22.4 nM | Ki (BoSusB (BoGH97CSus)): 69.3 ± 8.9 nM | Ki (BoSusA (BoGH13BSus) [2]): 123 ± 9.2 nM | IC50 (BoSusG (BoGH13ASus)): 2200 ± 350 nM | isothermal titration calorimetry (BoSusA (BoGH13BSus) [3]): Wild-type enzyme has two acarbose-binding sites, whereas a catalytically inert variant of each enzyme (D331N) has one | Ki (BtGH97H): 162 ± 24.3 nM | Ki (SusA [4]): 94.7 ± 6.9 nM
